Data reported in US11254644B2, “Inhibitors of alpha-amino-beta-carboxymuconic acid semialdehyde decarboxylase” (TES Pharma S.r.l., priority 2014, dated 2022).

Tests used:
hACMSD (ACMSD1) = hACMSD (ACMSD1) (Homo sapiens (Human), UniProt Q8TDX5); assay: Determination of ACMSD1 inhibition, spectrophotometrical in vitro assay; assay type: biochemical; settings: HAA concentration of 10 μM
Experimental: The activity of compounds as inhibitors of ACMSD1 is determined in a spectrophotometrical in vitro assay. The pre-assay mixture is incubated and a compound of Formula (I), Formula (Ia), Formula (Ib), Formula (II), or Formula (III), or a pharmaceutically acceptable salt thereof, and ACMSD1 solution is then added. The effect of ACMS concentration on the enzyme activity is investigated by varying 3-hydroxyanthranilic acid (3OH-HA) concentration in the pre-assay mixture. Kinetic parameters are calculated from the initial velocity data using a Lineweaver-Burk plot.
The activity of compounds 1-19 and 21-23 as inhibitors of ACMSD1 was determined by measuring the conversion of 3OH-Anthranilic Acid into product (i.e., ACMS) in a spectrophotometrical in vitro assay.
The pre-assay mixture consisting of 3-hydroxyanthranilic acid (3OH-HA), 3-hydroxyanthranilic acid, 3,4-diOxygenase (HAO), and a dialyzed crude extract of E. coli BL21 (DE3) cells expressing the recombinant enzyme, was incubated at 25° C. with monitoring of the increase in absorbance at 360 nm due to the formation of ACMS from 3OH-HA. After the reaction was completed within ˜2 mins, an aliquot of ACMSD1 solution (prepared and purified from Pichia Pastoris overexpressing the recombinant enzyme) was added, and the decrease in absorbance at 360 nm was followed at 15 second intervals. The effect of ACMS concentration on the enzyme activity was investigated by varying 3OH-HA concentration from 2 to 20 μM. Kinetic parameters were calculated from the initial velocity data by using the Lineweaver-Burk plot.
The rate of the decrease in absorbance caused by ACMSD1 was calculated by subtracting that of the control reaction mixture without ACMSD from that described above. One unit of ACMSD activity was indicated as the amount of enzyme that converts 1 mmol of ACMS per minute at 25° C. The absence or a reduction of ACMSD1 activity (e.g., by using ACMSD inhibitors) results in a slow ACMS-spontaneous degradation (i.e., cyclization to form quinolic acid).
The enzymatic activity was determined at a HAA concentration of 10 μM in the presence of the compounds in Table 1 below. The compounds were tested at the concentration of about 5 μM and 10 μM and the IC50 was calculated for compounds showing inhibitory activity higher than 50%.

[1] = test system: Caspase 3/7 activity in MDCK cells; assay: Modulation of cisplatin-induced caspase 3/7 activity in MDCK cells; assay type: cell-based; settings: p<0.001
Experimental: MDCK cells are cultured in base medium to a final concentration of 10%. Cells are plated into 96 wells and 24 hours after cell plating the medium is changed with fresh medium supplemented with 1% FBS. Cisplatin is then used to induce cell injury. Different concentrations of Formula (I), Formula (Ia), Formula (Ib), Formula (II), or Formula (III), or a pharmaceutically acceptable salt thereof (in DMSO) are added in combination with cisplatin or prior to adding cisplatin. Caspase 3/7 activity (Promega) is determined according to standard procedures using a luminescent signal readout on a plate reader. Each experiment/condition is performed in triplicate. Caspase activity is analyzed as percentage effect normalized to the cisplatin alone and vehicle treated cells.
MDCK cells (MDCK (NBL-2) ATCC® CCL-34™) were cultured in base medium ATCC-formulated Eagle's Minimum Essential Medium, Catalog No. 30-2003 with fetal bovine serum (FBS) to a final concentration of 10%. […]
Caspase 3/7 activity (Promega) was determined according to standard procedures using a luminescent signal readout on a Victor V plate reader (PerkinElmer). […]
Caspase activity was analyzed as percentage effect normalized to the cisplatin alone (100%) and vehicle treated cells as 0% of caspase activity. Data were analyzed by GraphPad Software. […]

[2] = test system: human primary hepatocytes; assay: NAD+ content in human primary hepatocytes (LCMS/MS); assay type: cell-based; settings: 0.5 μM and 5 μM; compound replaced every 24 hrs
Experimental: Primary hepatocytes are treated with different concentrations of a compound of Formula (I), Formula (Ia), Formula (Ib), Formula (II), or Formula (III), or a pharmaceutically acceptable salt thereof, or MEHP (control) after seeding. The compound is replaced every 24 hours, and then cells are directly harvested and lysed to detect NAD^+ content through LC MS/MS (liquid chromatography mass spectrometry/mass spectroscopy).
The NAD^+ concentration or content was determined in human primary hepatocytes treated with Compound 4. Vehicle (NT) was used as a control.
At least three experiments were run treating primary hepatocytes with different concentrations of Compound 4 (0.5 μM and 5 μM) after 48 hrs from seeding. Compound 4 was replaced every 24 hrs, and then cells were directly harvested and lysed with ACN/H2O (ratio 5:1). LCMS/MS was used to detect and measure NAD^+ concentration/content. […] (FIG. 1)
The NAD^+ concentration or content was determined in human primary hepatocytes treated with Compound 1 and MEHP, a known ACMSD inhibitor. MEHP was used as a control.
At least three experiments were run treating primary hepatocytes with different concentrations of Compound 1 (0.5 μM, 5 μM, and 50 μM) after 48 hrs from seeding. Compound 1 was replaced every 24 hrs, and then cells were directly harvested and lysed with ACN/H2O (ratio 5:1). […]

[3] = test system: SIRT1-regulated genes (Pgc1a, Sod1, Sod2) in primary mouse hepatocytes; assay: RT-qPCR analysis of SIRT1-regulated genes in primary murine hepatocytes; assay type: cell-based; settings: 24 hrs, 5 nM-500 nM range
Experimental: Cells (AML-12, Hepa-1.6, HEK-293, primary human and murine hepatocytes) are treated with different concentrations of a compound of Formula (I), Formula (Ia), Formula (Ib), Formula (II), or Formula (III), or a pharmaceutically acceptable salt thereof and the gene expression of ACMSD, Pgc1a, Sod1, and Sod2 (MnSOD) is determined using RT-qPCR. Total RNA is extracted from cells and the extracted RNA is treated with DNase and used for reverse transcription (RT).
Primary hepatocytes were prepared from 8-12-week-old C57BL/6J mice by collagenase perfusion method. Mouse livers were perfused with Hank's balanced salt solution (HBSS, KCl, 5.4 mM; KH2PO4, 0.45 mM; NaCl, 138 mM; NaHCO3, 4.2 mM; Na2HPO4, 0.34 mM; glucose, 5.5 mM; HEPES, 1 M; EGTA, 50 mM; CaCl2), 50 mM; pH 7.4). Livers were then washed at a rate of 5 ml/min through the portal vein. After washing, livers were perfused with collagenase (0.025%) solution. Cell viability was assessed by the trypan blue method. Isolated primary hepatocytes were plated with DMEM medium (Gibco) including 10% FCS, 10 units per ml penicillin and HEPES for buffering. The cells were maintained in culture at 37° C. in a humidified atmosphere of 5% CO2/95% air. After 6-8 hrs of attachment, this medium was replaced with media containing different concentrations of an ACMSD inhibitor (i.e., Compound 1 or Compound 17) or with the corresponding concentration of DMSO (as a control). Primary hepatocytes were harvested about 24 hrs later if not indicated differently.
Gene expression of ACMSD and genes known to be regulated by SIRT1, (an enzyme that is strictly NAD^+ dependent) such as Pgc1a, Sod1, Sod2 (MnSOD), were analysed in AML-12 cells, Hepa-1.6 cells and primary murine hepatocytes treated with Compound 1 or 17.
Cells (AML-12, Hepa-1.6, HEK-293, primary human and murine hepatocytes) were treated with different concentrations of Compound 1 or Compound 17. Total RNA was extracted from cells using TRIzol (Invitrogen) according to the manufacturer's instructions. […] 50× diluted cDNA was used for RT-quantitative PCR (RT-qPCR) reactions. […]

[4] = test system: SOD2 activity in primary murine hepatocytes; assay: Modulation of SOD2 activity in murine primary hepatocytes; assay type: cell-based, mouse
Experimental: Primary hepatocytes or AML-12 cells are lysed and total protein concentration is determined using the Bradford assay. SOD2 activity is determined at indicated times after treatment with a compound of Formula (I), Formula (Ia), Formula (Ib), Formula (II), or Formula (III), or a pharmaceutically acceptable salt thereof, using a SOD Assay Kit. Absorbance is determined and results are expressed in U/ml/mg of protein according to the standard curve and measured protein concentration.
Primary hepatocytes were prepared from 8-12-week-old C57BL/6J mice by collagenase perfusion method. […] Cell viability was assessed by the trypan blue method. […]
Primary hepatocytes or AML-12 cells were then lysed in a 20 mM HEPES buffer (Gibco), pH 7.2, containing 1 mM EGTA (Sigma), 210 mM mannitol (Sigma), and 70 mM sucrose (AMRESCO). Total protein concentration was determined using the Bradford assay (BioRad). SOD-2 activity was determined at indicated times after ACMSD inhibitor treatment by the SOD Assay Kit (Cayman Chemical) according to the manufacturer's instructions. […] Absorbance was determined with a Victor X4 multi-label plate reader (Perkin-Elmer) at 450 nm. Results are expressed in U/ml/mg of protein according to the standard curve and measured protein concentration.

[5] = test system: murine primary hepatocytes; assay: NAD+ content in murine primary hepatocytes (HPLC, mass spectrometry); assay type: cell-based, mouse; settings: 24 hours
Excerpt: NAD^+ is extracted using acidic extraction method and samples are collected and homogenized. After insoluble protein parts are pelleted, the samples are separated by high-performance liquid chromatography (HPLC) and analyzed by mass-spectrometry. The proteins in the pellet are quantified by Bradford assay and are used for normalization.
NAD^+ was extracted using acidic extraction method. Samples were collected and homogenized in 70% ice-cold perchloric acid (HClO4). After insoluble protein parts were pelleted by adding potassium carbonate (K2CO3), the samples were separated by high-performance liquid chromatography (HPLC) and analyzed by mass-spectrometry. The proteins in the pellet were quantified by Bradford assay and were used for normalization.

Sequence of hACMSD (ACMSD1) (Q8TDX5 whole entry): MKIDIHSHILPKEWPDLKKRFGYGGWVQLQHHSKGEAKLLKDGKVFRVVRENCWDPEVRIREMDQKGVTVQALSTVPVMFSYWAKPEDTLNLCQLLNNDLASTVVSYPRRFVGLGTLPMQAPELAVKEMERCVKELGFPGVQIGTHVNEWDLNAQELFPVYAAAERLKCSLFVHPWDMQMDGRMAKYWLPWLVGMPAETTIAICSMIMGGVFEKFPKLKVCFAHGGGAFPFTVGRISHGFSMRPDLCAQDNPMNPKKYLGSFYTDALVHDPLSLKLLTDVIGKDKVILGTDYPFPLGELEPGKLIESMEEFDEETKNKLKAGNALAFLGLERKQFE

SMILES	IC50 (hACMSD (ACMSD1))	further results
N#Cc1c(-c2ccncc2)nc(SCc2cccc(C(=O)O)c2)[nH]c1=O [Compound 7]	82 nM	
N#Cc1c(-c2cccs2)nc(SCc2cccc(CC(=O)O)c2)[nH]c1=O [Compound 18]	10 nM	caspase activity compared to cisplatin alone ([1]; 100 μM, in combination with cisplatin): decreased caspase activity in significant manner; caspase activity compared to cisplatin alone ([1]; about 30 μM to about 125 μM, one hour prior to cisplatin): decreased caspase activity in significant manner
N#Cc1c(-c2ccsc2)nc(SCc2cccc(C(=O)O)c2)[nH]c1=O [Compound 3]	31 nM	
N#Cc1c(-c2cccs2)nc(SCc2cccc(-c3noc(=O)[nH]3)c2)[nH]c1=O [Compound 19]	25 nM	
O=C(O)c1cccc(CSc2nc(-c3ccccc3)c(Br)c(=O)[nH]2)c1 [Compound 11]	71 nM	
O=C(O)c1cccc(CSc2nc(-c3ccccc3)c(Cl)c(=O)[nH]2)c1 [Compound 13]	136 nM	
N#Cc1c(-c2ccc(Cl)cc2)nc(SCc2ccc(C(=O)O)cc2)[nH]c1=O [Compound 8]	82 nM	
N#Cc1c(-c2cccs2)nc(SCc2cccc(C(=O)O)c2)[nH]c1=O [Compound 4]	12 nM	ACMSD-1 inhibition, NAD+ content screening (FIG. 1) [2]: inhibits ACMSD-1 enzyme
N#Cc1c(-c2cccs2)nc(SCc2cccc(-c3nn[nH]n3)c2)[nH]c1=O [Compound 17]	5 nM	Pgc1a mRNA expression level [3]: dose-dependent increase; Sod1 (Cu-Zn SOD) mRNA expression level [3]: but not Sod1; Sod2 (MnSOD) mRNA expression level [3]: dose-dependent increase; dose at which SOD2 effect reached a maximum [4]: about 50 nM; lowest concentration with significant effect on NAD+ levels [5]: ≤ 5 nM
N#Cc1c(Cl)nc(SCc2cccc(C(=O)O)c2)nc1-c1ccccc1 [Compound 22]	1100 nM	

More lines, in order of falling IC50 (hACMSD (ACMSD1)), values ahead:

IC50 (hACMSD (ACMSD1))	SMILES	further results
4900 nM	N#Cc1c(-c2cccs2)nc(SCC(=O)Nc2ccccc2O)[nH]c1=O [Compound 23]	
1990 nM	CC(Sc1nc(-c2ccccc2)c(C#N)c(=O)[nH]1)C(=O)O (centres unmarked) [Compound 21]	
1700 nM	Cc1nc(SCc2cccc(C(=O)O)c2)[nH]c(=O)c1C#N [Compound 10]	
960 nM	CCOC(=O)c1cccc(CSc2nc(-c3ccc(C)cc3)c(C#N)c(=O)[nH]2)c1 [Compound 9]	
760 nM	O=C(O)c1cccc(CSc2nc(-c3cccs3)cc(=O)[nH]2)c1 [Compound 15]	
740 nM	O=C(O)c1cccc(CSc2nc(-c3ccccc3)cc(=O)[nH]2)c1 [Compound 14]	
110 nM	N#Cc1c(-c2ccccc2)nc(SCc2ccc(C(=O)O)cc2)[nH]c1=O [Compound 16]	
88 nM	O=C(O)c1cccc(CSc2nc(-c3cccs3)c(Br)c(=O)[nH]2)c1 [Compound 12]	
77 nM	N#Cc1c(C2CCCCC2)nc(SCc2cccc(C(=O)O)c2)[nH]c1=O [Compound 6]	
66 nM	N#Cc1c(-c2ccco2)nc(SCc2cccc(C(=O)O)c2)[nH]c1=O [Compound 2]	
49 nM	N#Cc1c(-c2nccs2)nc(SCc2cccc(C(=O)O)c2)[nH]c1=O [Compound 5]	
